Series [1] concerns Human Peripheral Blood Mononuclear Cells (PBMC) or Enriched Adherent Mononuclear Cells. In words: Cell assay: IL-1β assay with human PBMC or enriched adherent mononuclear cells. The series is classed as cell-based. Conditions: LPS-stimulated cells, mature IL-1β in supernatant by ELISA. In outline:
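Human PBMC (suspension at 6×10^6 cells/ml) or adherent monocytes enriched by 1 h plating (2.5−3.0×10^5 cells/well) were stimulated with 5 ng/ml LPS (final) plus compound (5-6 dilutions, 0.1% DMSO final) for 16-18 hr at 37° C. Mature IL-1β in supernatants quantified by ELISA; duplicate cultures, duplicate ELISAs.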

A further series concerns the target T1, ICE (Homo sapiens, UniProt P29466).
T1 sequence (P29466 120-297 limits assumed): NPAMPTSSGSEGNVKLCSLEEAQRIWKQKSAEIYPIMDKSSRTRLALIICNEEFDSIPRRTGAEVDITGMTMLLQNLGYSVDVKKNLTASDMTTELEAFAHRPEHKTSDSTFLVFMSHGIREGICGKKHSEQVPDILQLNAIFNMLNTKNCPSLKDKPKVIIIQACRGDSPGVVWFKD
T1 sequence (P29466 317-404 limits assumed): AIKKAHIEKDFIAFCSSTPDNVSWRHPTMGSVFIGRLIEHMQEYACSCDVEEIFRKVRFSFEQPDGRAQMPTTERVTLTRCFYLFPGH
Nature of the series: Enzyme assay with UV-visible substrate (Succinyl-Tyr-Val-Ala-Asp-pNitroanilide). In kind it is biochemical. Here is the method:
1. Enzyme Assay with UV-Visible Substrate
This assay is run using an Succinyl-Tyr-Val-Ala-Asp-pNitroanilide substrate. Synthesis of analogous substrates is described by L. A. Reiter (Int. J. Peptide Protein Res. 43, 87-96 (1994)). The assay mixture contains:
The visible ICE assay is run in a 96-well microtiter plate. Buffer, ICE and DMSO (if inhibitor is present) are added to the wells in the order listed. The components are left to incubate at room temperature for 15 minutes starting at the time that all components are present in all wells. The microtiter plate reader is set to incubate at 37° C. After the 15 minute incubation, substrate is added directly to the wells and the reaction is monitored by following the release of the chromophore (pNA) at 405-603 nm at 37° C. for 20 minutes. A linear fit of the data is performed and the rate is calculated in mOD/min. DMSO is only present during experiments involving inhibitors, buffer is used to make up the volume to 100 μl in the other experiments.
For determination of enzyme inhibition constants (Ki) or the mode of inhibition (competitive, uncompetitive or noncompetitive), the rate data determined in the enzyme assays at varying inhibitor concentrations are computer-fit to standard enzyme kinetic equations (see I. H. Segel, Enzyme Kinetics, Wiley-Interscience, 1975).

[2] abbreviates: Homo sapiens, PBMC, Example 4 table.
Where [3] appears, read: Homo sapiens, PBMC, Example 6 table.

The record followed here is patent US20110015371A1 (Vertex Pharmaceuticals Incorporated, priority 1994, published 2011).

A value given as a limit tells only on which side of the number the result lay.

A word on the IC50: it is the concentration that inhibits the measured activity by half. A high value points to weaker potency. A word on the melting point: it is the temperature of the solid-liquid transition. Compound `CC(=O)N[C@@H](Cc1ccc(O)cc1)C(=O)N[C@H](C(=O)N[C@@H](C)C(=O)N[C@H](CC(=O)O)C(=O)COCc1c(Cl)cccc1Cl)C(C)C` (mixture of isomers) [Compound 84b, (R,S)N-[N-(Acetyl)tyrosinyl-valinyl-alaninyl]-3-amino-5-(2,6-dichlorophenylmethyloxy)-4-oxo-pentanoic acid] yielded a melting point of 165 to 168 °C. The same compound returned an IC50 in series [1] (setting [2]) of 0.5 µM. The compound `C[C@H](NC(=O)c1nc(Cc2ccccc2)c[nH]1)C(=O)N[C@H](C=O)CC(=O)O` [Compound 20b, (3S)3-[N-(4-Benzylimidazole-2-carbonyl)-L-alaninyl]amino-4-oxobutanoic acid] came in with a melting point of 113 to 115 °C. In series [1] (setting [2]), the IC50 amounted to 16.4 µM.

For the compound `C[C@H](NC(=O)c1ncc(CCc2ccccc2)[nH]1)C(=O)N[C@H](C=O)CC(=O)O` [Compound 20c, (3S)3-{N-[4-(2-Phenylethyl)imidazole-2-carbonyl]-L-alaninyl}amino-4-oxobutanoic acid], the melting point was in the range of 102 to 104 °C. Same read-out and setting: for `O=C[C@H](CC(=O)O)NC(=O)[C@@H]1CCCN1C(=O)c1nc(CCc2ccccc2)c[nH]1` [Compound 21c, (3S)3{N-[4-(2-Phenylethyl)imidazole-2-carbonyl]-L-prolinyl}amino-4-oxobutanoic acid] the value was 101 to 103 °C. `O=C[C@H](CC(=O)O)NC(=O)[C@@H]1CCCN1C(=O)c1nc(CCCc2ccccc2)c[nH]1` [Compound 21d, (3S)3-{N-[4-(3-Phenylpropyl)imidazole-2-carbonyl]-L-prolinyl}amino-4-oxo-butanoic acid] yielded a melting point of 91 to 94 °C. This compound yielded an IC50 in series [1] (setting [2]) of 4.8 µM.

In general, Ki refers to the equilibrium dissociation constant of an inhibitor or competing ligand from its target. As to `COc1cccc2nc(C(=O)[C@H](CC(=O)O)NC(=O)CN3C(=O)[C@@H](NC(=O)CCc4ccccc4)CN(C(=O)CCc4ccccc4)c4ccccc43)oc12` [Compound 108b, 4-(7-Methoxybenzoxazol-2-yl)-4-oxo-3(S)-{2-[2-oxo-5-(3-phenylpropionyl)-3(S)-(3-phenylpropionylamino)-2,3,4,5-tetrahydrobenzo[b][1,4]diazepin-1-yl]-acetylamino}butyric acid], at ICE (Example 6 table), the Ki came to 400 nM. In series [1] (setting [3]), this compound yielded an IC50 of 25 µM. On to `O=C(O)C[C@H](NC(=O)Cn1c(Cc2ccccc2)ccc(NC(=O)CCc2ccccc2)c1=O)C(=O)CSCc1ccccc1Cl` [Compound 125a], for which the Ki on ICE (Example 6 table) stood at 390 nM. For the same compound, in series [1] (Example 6 table), the IC50 is > 30 µM. Compound `COc1cccc2nc(C(=O)[C@H](CC(=O)O)NC(=O)[C@H](C)n3cccc(NC(=O)CCc4ccccc4)c3=O)oc12` [Compound 126] had a Ki on ICE (Example 6 table) of 450 nM. The midpoint of inhibition in series [1] (setting [3]), the IC50, lay at 1.5 µM.

As to `COc1cccc2nc(C(=O)[C@H](CC(=O)O)NC(=O)Cn3c(Cc4ccccc4)ccc(NC(=O)CCc4ccccc4)c3=O)oc12` [Compound 127], the Ki on ICE (Example 6 table) turned out to be 390 nM. Moreover, the IC50 in series [1] (setting [3]) turned out to be 8 µM. On the same counts, the results for `O=C(O)C[C@H](NC(=O)Cn1c(Cc2ccccc2)ccc(NC(=O)CCc2ccccc2)c1=O)C(=O)c1ncc(-c2c(Cl)cccc2Cl)o1` [Compound 128] are 40 nM and 7.5 µM.

`C[C@@H](C(=O)N[C@@H](CC(=O)O)C(=O)c1ncc(-c2c(Cl)cccc2Cl)o1)n1cccc(NC(=O)CCc2ccccc2)c1=O` [Compound 129] showed a Ki on ICE (Example 6 table) of 590 nM. Besides, half-maximal inhibition in series [1] (setting [3]) (IC50) was put at 25 µM. With `O=C[C@H](CC(=O)O)NC(=O)[C@@H]1CCCN2C(=O)C[C@H](NC(=O)CCc3ccccc3)C(=O)N12` [Compound 132a], the affinity at ICE (Example 6 table) corresponds to a Ki of 5000 nM. Also, the IC50 in series [1] (setting [3]) is > 30 µM. `O=C[C@H](CC(=O)O)NC(=O)[C@@H]1CCCN2CC[C@H](NC(=O)CCc3ccccc3)C(=O)N12` [Compound 133] yielded a Ki on ICE (Example 6 table) of 50000 nM. In series [1] (setting [3]), the IC50 is > 30 µM. Take `COc1cccc2nc(C(=O)[C@H](CC(=O)O)NC(=O)[C@@H]3CCCN4C(=O)CC[C@H](NC(=O)CCc5ccccc5)C(=O)N34)oc12` [Compound 135a]: affinity at ICE (Example 6 table) was put at a Ki of 90 nM. In series [1] (setting [3]), the IC50 was determined as 0.9 µM.

`COc1cccc2oc(C(=O)[C@H](CC(=O)O)NC(=O)[C@@H]3CCCN4C(=O)CC[C@H](NC(=O)CCc5ccccc5)C(=O)N34)nc12` [Compound 135b]: the Ki on ICE (Example 6 table) came to 320 nM. For the same compound, 0.95 µM corresponded to half-maximal inhibition in series [1] (setting [3]) (IC50). Turning to `O=C(O)C[C@H](NC(=O)[C@@H]1CCCN2C(=O)CC[C@H](NC(=O)CCc3ccccc3)C(=O)N12)C(=O)c1ncc(-c2c(Cl)cccc2Cl)o1` [Compound 137], the affinity at ICE (Example 6 table) corresponds to a Ki of 40 nM. In series [1] (setting [3]), this compound returned an IC50 of 0.25 µM.

On to `CS(=O)(=O)N[C@H]1CCC(=O)N2CCC[C@@H](C(=O)N[C@H](C=O)CC(=O)O)N2C1=O` [Compound 139], for which affinity on ICE (Example 6 table) was put at a Ki of 350 nM. For the same compound, 2 µM corresponded to half-maximal inhibition in series [1] (setting [3]) (IC50). As to `O=C[C@H](CC(=O)O)NC(=O)[C@@H]1Cc2ccccc2[C@H]2CCC[C@H](NC(=O)CCc3ccccc3)C(=O)N21` [Compound 140], the Ki at ICE (Example 6 table) was 870 nM. Also, the IC50 in series [1] (setting [3]) was > 30 µM. As for `CC(C)[C@H](NC(=O)OCc1ccccc1)C(=O)N[C@@H](C)C(=O)N[C@@H](CC(=O)O)C(=O)c1ncc(-c2ccccc2C(F)(F)F)o1` [Compound 144], affinity on ICE (Example 6 table) was put at a Ki of 320 nM. In addition, in series [1] (setting [3]), the IC50 was > 20 µM. The like results for `CC(C)[C@H](NC(=O)OCc1ccccc1)C(=O)N[C@@H](C)C(=O)N[C@@H](CC(=O)O)C(=O)c1ncc(-c2ccccc2)o1` [Compound 145] were, in that order, 340 nM and 8.5 µM. As for `CC(C)[C@H](NC(=O)OCc1ccccc1)C(=O)N[C@@H](C)C(=O)N[C@@H](CC(=O)O)C(=O)c1ncc(-c2c(Cl)cccc2Cl)o1` [Compound 146], on ICE (Example 6 table), the Ki came to 160 nM. This compound also displayed an IC50 in series [1] (setting [3]) of 3.8 µM. For the compound `CC(C)[C@H](NC(=O)OCc1ccccc1)C(=O)N[C@@H](C)C(=O)N[C@@H](CC(=O)O)C(=O)c1ncc(-c2ccccc2Cl)o1` [Compound 147], on ICE (Example 6 table), the affinity corresponds to a Ki of 260 nM. In addition, in series [1] (setting [3]), inhibition was half-maximal at 8.5 µM (IC50).

On ICE (Example 6 table), `CC(C)[C@H](NC(=O)OCc1ccccc1)C(=O)N[C@@H](C)C(=O)N[C@@H](CC(=O)O)C(=O)c1nccs1` [Compound 148] registered a Ki of 6300 nM. Also, inhibition in series [1] (setting [3]) was half-maximal at 30 µM (IC50). On the same counts, the results for `CC(C)[C@H](NC(=O)OCc1ccccc1)C(=O)N[C@@H](C)C(=O)N[C@@H](CC(=O)O)C(=O)c1cocn1` [Compound 149] are 14000 nM and > 30 µM.

With `CC(C)[C@H](NC(=O)OCc1ccccc1)C(=O)N[C@@H](C)C(=O)NC(CC(=O)O)C(=O)c1ncc(-c2ccccc2)[nH]1` (some centres unmarked) [Compound 150], the inhibitory constant (Ki) on ICE (Example 6 table) is 10000 nM. Further, the IC50 in series [1] (setting [3]) came out at 30 µM.

The compound `CC(C)[C@H](NC(=O)OCc1ccccc1)C(=O)N[C@@H](C)C(=O)NC(CC(=O)O)C(=O)c1ncc[nH]1` (some centres unmarked) [Compound 151] came in with a Ki at ICE (Example 6 table) of 13000 nM. For the same compound, the IC50 in series [1] (setting [3]) turned out to be 30 µM.

At ICE (Example 6 table), `CC(=O)N[C@@H](Cc1ccc(O)cc1)C(=O)N[C@H](C(=O)N[C@@H](C)C(=O)N[C@@H](CC(=O)O)C(=O)c1ncc(-c2c(Cl)cccc2Cl)s1)C(C)C` [Compound 154] gave a Ki of 42 nM. This compound also displayed an IC50 in series [1] (setting [3]) of 2.4 µM.

Compound `CC(=O)N[C@@H](Cc1ccc(O)cc1)C(=O)N[C@H](C(=O)N1C[C@H](Oc2ccccc2)C[C@H]1C(=O)N[C@@H](CC(=O)O)C(=O)c1ncc(-c2c(Cl)cccc2Cl)o1)C(C)C` [Compound 156] registered a Ki on ICE (Example 6 table) of 1 nM. In addition, the IC50 in series [1] (setting [3]) was 2.7 µM.

Compound `COc1cccc2nc(C(=O)[C@H](CC(=O)O)NC(=O)[C@@H]3C[C@@H](Oc4ccccc4)CN3C(=O)[C@@H](NC(=O)[C@H](Cc3ccc(O)cc3)NC(C)=O)C(C)C)oc12` [Compound 159] displayed a Ki at ICE (Example 6 table) of 1.7 nM. In addition, the IC50 in series [1] (setting [3]) came out at 8 µM. As to `CC(=O)N[C@H](C(=O)N1C[C@H](Oc2ccccc2)C[C@H]1C(=O)N[C@@H](CC(=O)O)C(=O)c1ncc(-c2c(Cl)cccc2Cl)o1)C(C)C` [Compound 160], affinity at ICE (Example 6 table) was put at a Ki of 145 nM. Also, the IC50 in series [1] (setting [3]) was determined as 2.25 µM. On the same counts, the results for `CC(=O)N[C@@H](Cc1ccc(O)cc1)C(=O)N[C@H](C(=O)N[C@@H](C)C(=O)N[C@@H](CC(=O)O)C(=O)c1ncc(-c2c(Cl)cccc2Cl)o1)C(C)C` [Compound 163] are 2.8 nM and 1.2 µM. “(3S)t-Butyl N-(N-acetyl-(S)-tyrosinyl-(S)-valinyl-(S)-alaninyl)-3-amino-4-(2-(4-methoxybenzoxazolyl))-4-oxobutanoate [Compound 69b]”: at ICE (Example 4 table), the Ki amounted to 50 nM. Moreover, the IC50 in series [1] (Example 4 table) was 0.745 µM.
